The values below are quoted from earlier work in patent publication US7973075B2, “Kainate receptor-selective epimeric analogs of dysiherbaine” (priority 2007, dated 2011).

pKi: −log10 of the molar value.

Data set [1] concerns mice. The following applies: i.c.v. injection, mice; Shoji et al., 2006; cited from earlier work.
The target of data set [2] is T1, KA2 (Rattus norvegicus, UniProt Q63273).
T1 construct: expressed in transfected cells; host or cells: HEK-293-T/17
T1 sequence (Q63273 15-979): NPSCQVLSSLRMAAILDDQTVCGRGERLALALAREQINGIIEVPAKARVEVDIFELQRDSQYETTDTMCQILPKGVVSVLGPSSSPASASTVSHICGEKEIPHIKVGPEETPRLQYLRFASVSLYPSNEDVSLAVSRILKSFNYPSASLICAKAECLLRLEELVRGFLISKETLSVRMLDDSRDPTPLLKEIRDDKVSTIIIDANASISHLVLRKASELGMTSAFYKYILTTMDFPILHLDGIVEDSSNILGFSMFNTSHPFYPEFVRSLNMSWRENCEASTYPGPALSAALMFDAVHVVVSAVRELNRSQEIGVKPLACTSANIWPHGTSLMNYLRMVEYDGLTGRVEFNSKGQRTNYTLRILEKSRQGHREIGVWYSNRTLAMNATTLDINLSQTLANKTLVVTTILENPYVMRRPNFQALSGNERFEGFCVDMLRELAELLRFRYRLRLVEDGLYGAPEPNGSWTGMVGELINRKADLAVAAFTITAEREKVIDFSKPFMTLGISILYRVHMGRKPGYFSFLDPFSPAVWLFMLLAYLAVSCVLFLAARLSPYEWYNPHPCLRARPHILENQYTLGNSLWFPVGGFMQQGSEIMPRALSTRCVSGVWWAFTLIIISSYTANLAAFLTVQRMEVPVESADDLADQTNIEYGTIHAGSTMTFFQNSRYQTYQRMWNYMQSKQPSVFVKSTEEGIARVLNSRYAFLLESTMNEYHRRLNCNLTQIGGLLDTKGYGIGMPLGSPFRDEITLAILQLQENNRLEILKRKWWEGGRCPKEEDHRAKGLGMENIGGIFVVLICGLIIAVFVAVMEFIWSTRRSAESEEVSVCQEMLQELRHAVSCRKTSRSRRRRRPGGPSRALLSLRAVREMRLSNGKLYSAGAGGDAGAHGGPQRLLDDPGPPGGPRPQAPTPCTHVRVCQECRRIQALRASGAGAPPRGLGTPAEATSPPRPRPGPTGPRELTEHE
Particulars: Sanders et al., 2005; cited from earlier work.

Data set [3] has as its target T2, GluR5-2a (Rattus norvegicus, UniProt P22756, DEL402-416).
T2 construct: expressed in transfected cells; host or cells: HEK-293-T/17
The following applies: Sanders et al., 2005; cited from earlier work.

For data set [4], the target named is T3, GluR6 (Rattus norvegicus, UniProt P42260).
T3 construct: expressed in transfected cells; HEK 293 (patch clamp)
T3 sequence (P42260 32-908): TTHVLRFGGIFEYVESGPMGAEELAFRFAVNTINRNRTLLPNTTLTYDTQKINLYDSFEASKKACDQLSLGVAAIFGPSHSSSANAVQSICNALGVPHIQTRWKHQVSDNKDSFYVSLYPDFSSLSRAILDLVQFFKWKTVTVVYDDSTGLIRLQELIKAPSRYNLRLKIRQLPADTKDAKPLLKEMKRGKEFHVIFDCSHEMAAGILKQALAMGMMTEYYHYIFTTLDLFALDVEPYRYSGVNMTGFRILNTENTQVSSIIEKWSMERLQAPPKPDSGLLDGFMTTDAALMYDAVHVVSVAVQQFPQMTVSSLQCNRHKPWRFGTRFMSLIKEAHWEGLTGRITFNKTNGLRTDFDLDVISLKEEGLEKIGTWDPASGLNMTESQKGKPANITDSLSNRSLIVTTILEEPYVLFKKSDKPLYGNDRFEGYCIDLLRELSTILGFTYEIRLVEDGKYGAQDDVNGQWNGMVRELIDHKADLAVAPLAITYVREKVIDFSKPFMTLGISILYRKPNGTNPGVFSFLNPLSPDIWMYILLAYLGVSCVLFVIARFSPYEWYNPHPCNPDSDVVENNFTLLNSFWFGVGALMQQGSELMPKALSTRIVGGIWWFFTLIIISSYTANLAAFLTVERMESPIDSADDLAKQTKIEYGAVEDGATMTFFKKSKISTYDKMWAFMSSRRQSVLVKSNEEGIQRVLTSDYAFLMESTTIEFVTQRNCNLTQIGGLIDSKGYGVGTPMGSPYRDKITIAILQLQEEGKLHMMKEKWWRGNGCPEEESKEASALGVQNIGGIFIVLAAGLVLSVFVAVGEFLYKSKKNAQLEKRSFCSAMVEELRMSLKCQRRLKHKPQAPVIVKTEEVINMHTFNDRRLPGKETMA
Particulars: Tables 1-2; comparison value of neoDH (Sanders et al., 2005); read-out: GluR6 binding affinity (displacement of [3H]kainate); cited from earlier work.

Data set [5] deals with T4, GluR5 (Rattus norvegicus, UniProt P22756).
T4 construct: expressed in transfected cells; HEK 293 (patch clamp)
T4 sequence (P22756 with tags, fused parts or gaps isoform P22756-2): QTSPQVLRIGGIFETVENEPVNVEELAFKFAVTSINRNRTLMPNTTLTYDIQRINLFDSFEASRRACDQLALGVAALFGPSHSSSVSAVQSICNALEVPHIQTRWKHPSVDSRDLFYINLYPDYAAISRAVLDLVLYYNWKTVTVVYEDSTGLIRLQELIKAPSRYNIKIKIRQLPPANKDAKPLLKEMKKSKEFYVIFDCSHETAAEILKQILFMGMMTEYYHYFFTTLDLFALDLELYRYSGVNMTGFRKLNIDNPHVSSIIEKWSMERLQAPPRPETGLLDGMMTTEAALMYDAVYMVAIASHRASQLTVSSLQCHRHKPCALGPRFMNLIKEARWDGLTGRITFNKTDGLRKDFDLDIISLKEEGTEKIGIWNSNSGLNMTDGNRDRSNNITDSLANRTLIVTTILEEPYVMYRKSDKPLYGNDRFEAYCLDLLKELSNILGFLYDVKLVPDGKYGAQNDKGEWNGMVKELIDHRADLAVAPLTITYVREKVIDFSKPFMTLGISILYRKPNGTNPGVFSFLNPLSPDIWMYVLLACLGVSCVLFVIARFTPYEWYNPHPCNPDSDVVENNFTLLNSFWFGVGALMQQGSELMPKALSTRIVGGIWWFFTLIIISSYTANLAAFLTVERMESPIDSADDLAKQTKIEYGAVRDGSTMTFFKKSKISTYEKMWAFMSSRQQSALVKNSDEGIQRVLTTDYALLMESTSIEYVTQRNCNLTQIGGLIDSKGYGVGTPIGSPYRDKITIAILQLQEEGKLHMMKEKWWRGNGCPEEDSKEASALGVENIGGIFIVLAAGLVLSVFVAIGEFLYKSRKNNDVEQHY
The following applies: Tables 1-2; comparison values of neoDH and MSVIII-19 (Sanders et al., 2005); read-out: GluR5 binding affinity (displacement of [3H]kainate); cited from earlier work. (In general: Displacement assays read how much labelled ligand stays bound in the presence of the test substance.)

Data set [6] has as its target T1, KA2. Particulars: Tables 1-2; comparison values of neoDH and MSVIII-19 (Sanders et al., 2005); cited from earlier work.

T2 sequence (P22756 with tags, fused parts or gaps isoform P22756-2 limits assumed, stated change not applied): as the sequence (P22756 with tags, fused parts or gaps isoform P22756-2) above

On to `CN[C@H]1[C@H]2O[C@@](C[C@H](N)C(=O)O)(C(=O)O)C[C@H]2OC[C@H]1O` [DH, Dysiherbaine], for which the ED50 seizure activity in data set [1] was 13 pmol/mouse.

With `N[C@@H](C[C@]1(C(=O)O)C[C@H]2OC[C@@H](O)[C@@H](O)[C@H]2O1)C(=O)O` [neodysiherbaine, Neodysiherbaine], the “Ki KA2” value in data set [2] was 600 nM. The pKi in data set [3] was 8.11; in data set [4] it was 7.48; in data set [5], 8.11. The ED50 seizure activity in data set [1] is given as 16 pmol/mouse. For the same compound, the “KA2 binding affinity (displacement of [3H]kainate)” value in data set [6] is 0.6 µM.
